From the supplement of paper PMC7840683
± gives the standard deviation of the averaged measurements.

Test system: HepaRG
Experiment: LDH release cytotoxicity, % of total lysis control; higher = more cytotoxic
Details: 48 h
Method in brief: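 Eight-point half-log series of test chemicals, the highest at 100 µM, were given in duplicate for 48 h to single-lot HepaRG cells on collagen I-coated 96-well plates in serum-free induction medium with 0.5% DMSO. A Tecan Safire read resorufin fluorescence from CytoTox-ONE as a measure of LDH in 50 µL spent medium, with 0.1% Triton X in total lysis wells. Percent cytotoxicity was normalized to on-plate vehicle and total lysis controls and averaged over the duplicates.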

CN(C)c1nc(=O)n(C2CCCCC2)c(=O)n1C [Hexazinone]
Details	LDH release cytotoxicity [%]
0.03162 µM	-1.77 ± 0.1
0.1 µM	-1.77 ± 0.46
0.3162278 µM	0.416 ± 1.9
1 µM	-2.14 ± 0.28
3.16228 µM	-0.406 ± 1.8
10 µM	-0.642 ± 0.23
31.6228 µM	-1.37 ± 0.81
100 µM	0.813 ± 0.03

CC(=O)CC(C)(C)O [Diacetone alcohol]
Details	LDH release cytotoxicity [%]
0.016602 µM	-0.631 ± 2.5
0.0525 µM	0.0827 ± 1.3
0.16602 µM	-0.266 ± 1.6
0.525 µM	0.0034 ± 1.3
1.660196 µM	-0.934 ± 0.13
5.25 µM	-1.02 ± 0.65
16.602 µM	-0.505 ± 0.51
52.5 µM	-2.05 ± 3

CC(=O)OCCC(C)C [3-Methylbutyl acetate]
Details	LDH release cytotoxicity [%]
0.03162 µM	-1.61 ± 1.2
0.1 µM	-1.62 ± 0.34
0.3162278 µM	-0.432 ± 0.2
1 µM	-1.89 ± 0.41
3.16228 µM	-0.737 ± 0.29
10 µM	0.266 ± 1.3
31.6228 µM	1.88 ± 0.52
100 µM	2.4 ± 0.52

CCCCCCCCN(C)C [N,N-Dimethyloctylamine]
Details	LDH release cytotoxicity [%]
0.031939 µM	-1.23 ± 0.93
0.101 µM	-0.78 ± 0.02
0.31939 µM	-2.01 ± 1.1
1.01 µM	-1.97 ± 1.2
3.1939004 µM	-1.09 ± 0.4
10.1 µM	-1.35 ± 0.46
31.939 µM	-0.557 ± 0.49
101 µM	2.22 ± 0.066

COC(=O)CCCC(=O)OC [Dimethyl glutarate]
Details	LDH release cytotoxicity [%]
0.03162 µM	-0.9 ± 1.2
0.1 µM	-1.35 ± 0.52
0.3162278 µM	-1.16 ± 1.5
1 µM	-1.42 ± 0.98
3.16228 µM	-1.03 ± 1.1
10 µM	-1.13 ± 0.84
31.6228 µM	-1.36 ± 0.88
100 µM	3.2 ± 2.1

COC(=O)C=C(C)OP(=O)(OC)OC [Mevinphos]
Details	LDH release cytotoxicity [%]
0.03162 µM	-1.49 ± 1.2
0.1 µM	-1.28 ± 0.3
0.3162278 µM	-0.769 ± 1.7
1 µM	-2.52 ± 0.67
3.16228 µM	-2.16 ± 0.68
10 µM	-0.179 ± 0.88
31.6228 µM	-1.3 ± 0.79
100 µM	1.1 ± 2

O=S(=O)(O)C(F)(F)C(F)(F)C(F)(F)C(F)(F)C(F)(F)C(F)(F)C(F)(F)C(F)(F)F [Potassium perfluorooctanesulfonate]
Details	LDH release cytotoxicity [%]
0.03036 µM	-2.82 ± 0.99
0.096 µM	-1.72 ± 1.2
0.303579 µM	-2.71 ± 0.49
0.96 µM	-2.314 ± 0.0065
3.03579 µM	-2.44 ± 0.43
9.6 µM	-1.36 ± 0.89
30.3579 µM	-1.03 ± 0.88
96 µM	27.2 ± 1.1

CCCN(CCC)c1c([N+](=O)[O-])cc(S(N)(=O)=O)cc1[N+](=O)[O-] [Oryzalin]
Details	LDH release cytotoxicity [%]
0.03162 µM	-2.37 ± 0.48
0.1 µM	-2.04 ± 0.77
0.3162278 µM	-0.725 ± 1.5
1 µM	-1.89 ± 1.1
3.16228 µM	-2.11 ± 0.66
10 µM	-2.88 ± 0.44
31.6228 µM	-1.72 ± 0.24
100 µM	77.1 ± 9.5

O=C(NS(=O)(=O)C=Cc1ccccc1)c1ccc(F)cc1Cl
Details	LDH release cytotoxicity [%]
0.03162 µM	-0.138 ± 0.18
0.1 µM	-1.32 ± 0.77
0.3162278 µM	-0.79 ± 0.41
1 µM	-2.23 ± 0.62
3.16228 µM	-1.4 ± 0.85
10 µM	-0.621 ± 0.72
31.6228 µM	-0.552 ± 1.1
100 µM	1.91 ± 1.4

CCC1(c2ccccc2)C(=O)N=C(O)NC1=O (configuration not stated) [Phenobarbital sodium]
Details	LDH release cytotoxicity [%]
0.03162 µM	-1.03 ± 0.11
0.1 µM	-0.9 ± 0.78
0.3162278 µM	-1.41 ± 0.58
1 µM	-0.43 ± 0.71
3.16228 µM	-0.289 ± 0.44
10 µM	-0.0423 ± 0.88
31.6228 µM	0.694 ± 0.48
100 µM	1.83 ± 0.84

CC1CN(N=Cc2cccnc2)C(=O)N=N1 (configuration not stated) [Pymetrozine]
Details	LDH release cytotoxicity [%]
0.03162 µM	4.48 ± 0.29
0.1 µM	4.64 ± 1.1
0.3162278 µM	4.33 ± 1.2
1 µM	3.28 ± 0.56
3.16228 µM	5.3 ± 1.3
10 µM	4.29 ± 1.6
31.6228 µM	6.57 ± 0.73
100 µM	9.47 ± 2.1

C/C=C/C=C/C(=O)O [2E,4E-Hexadienoic acid]
Details	LDH release cytotoxicity [%]
0.03162 µM	-0.745 ± 0.091
0.1 µM	-1.89 ± 0.18
0.3162278 µM	-1.82 ± 0.54
1 µM	-1.07 ± 0.45
3.16228 µM	-1.03 ± 0.12
10 µM	-1.19 ± 0.023
31.6228 µM	-0.323 ± 0.42
100 µM	0.653 ± 1.2

N#Cc1c(Cl)c(Cl)c(Cl)c(C#N)c1Cl [Chlorothalonil]
Details	LDH release cytotoxicity [%]
0.031623 µM	-0.0289 ± 0.73
0.1 µM	-1.96 ± 3.7
0.316228 µM	-3.42 ± 0.39
1 µM	-2.72 ± 1.5
3.16228 µM	-0.469 ± 1.9
10 µM	4.78 ± 0.7
31.6228 µM	20.5 ± 1.1
100 µM	48.7 ± 34

CCOC(N)=O [Urethane]
Details	LDH release cytotoxicity [%]
0.03162 µM	-1.53 ± 1
0.1 µM	-1.5 ± 0.84
0.3162278 µM	-1.42 ± 0.68
1 µM	-1.29 ± 0.5
3.16228 µM	-1.03 ± 0.12
10 µM	-1.2 ± 0.054
31.6228 µM	-0.4372 ± 0.0016
100 µM	0.365 ± 1.2

Nn1cnnc1 [4-Amino-1,2,4-triazole]
Details	LDH release cytotoxicity [%]
0.0320971 µM	-2.94 ± 0.43
0.1015 µM	-2.79 ± 0.045
0.320971 µM	-3.1 ± 0.21
1.015 µM	-3.38 ± 1.2
3.2097118 µM	-2.7 ± 0.23
10.15 µM	-3.19 ± 0.35
32.0971 µM	-3.08 ± 0.13
101.5 µM	0.447 ± 1.1

OCCOCCOCCO [Triethylene glycol]
Details	LDH release cytotoxicity [%]
0.03162 µM	-0.151 ± 1
0.1 µM	-1.04 ± 0.017
0.3162278 µM	-0.871 ± 0.11
1 µM	-1.23 ± 0.56
3.16228 µM	-1.32 ± 0.055
10 µM	-0.871 ± 0.14
31.6228 µM	-1.1 ± 0.18
100 µM	0.204 ± 0.36

CCC[CH2][Sn]([Cl])([CH2]CCC)[CH2]CCC [Tributyltin chloride]
Details	LDH release cytotoxicity [%]
0.031623 µM	0.564 ± 1.9
0.1 µM	-3.6 ± 1.2
0.316228 µM	-2.2 ± 0.71
1 µM	-2.91 ± 0.74
3.16228 µM	-3.46 ± 0.11
10 µM	-2.765 ± 0.018
31.6228 µM	-1.81 ± 0.11
100 µM	0.00684 ± 1.1

CCON=C(CC)C1C(=O)CC(c2c(C)cc(C)cc2C)CC1=O (configuration not stated) [Tralkoxydim]
Details	LDH release cytotoxicity [%]
0.03162 µM	-1.61 ± 1.5
0.1 µM	-2.54 ± 0.76
0.3162278 µM	-2.84 ± 0.85
1 µM	-1.69 ± 0.41
3.16228 µM	-3.18 ± 0.7
10 µM	-2.04 ± 0.19
31.6228 µM	-1.88 ± 0.12
100 µM	-0.758 ± 0.81

COCC(C)OCC(C)O (configuration not stated) [Dipropylene glycol monomethyl ether]
Details	LDH release cytotoxicity [%]
0.03162 µM	-1.67 ± 0.049
0.1 µM	-1.92 ± 0.76
0.3162278 µM	-1.46 ± 0.17
1 µM	-1.8 ± 0.051
3.16228 µM	-1.39 ± 0.54
10 µM	-0.852 ± 0.24
31.6228 µM	0.852 ± 0.72
100 µM	0.163 ± 0.47
